In patent publication US20240262845A1, “PYRIDINIUM SALTS, METHODS OF MAKING, AND METHODS OF USE” (UNIVERSITY OF WYOMING, priority 2023, published 2024):
Entries after “also recorded” stand apart in the source; their conditions may differ. Where a name gives a salt, the structure may show the parent alone.

Columns and labels:
β2-Microglobulin = target: T1, β2-Microglobulin (Homo sapiens, UniProt P61769); assay: Photochemical labeling of β2-microglobulin with pyridinium salt (General Procedure B, LC/MS); format: biochemical; conditions: trypsin digest
T1 construct: β2-microglobulin (Human Urine ≥98% (SDS-PAGE)); purchased Lee Biosolutions; host or cells: human urine
T1 sequence (P61769 21-119): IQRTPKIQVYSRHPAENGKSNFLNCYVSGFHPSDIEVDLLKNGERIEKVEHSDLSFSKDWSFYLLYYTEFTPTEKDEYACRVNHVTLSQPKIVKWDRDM
Experimental: General Procedure B: Photochemical Irradiation of Peptides and Proteins: To a 2 mL Pyrex LC/MS vial (Thermo model #03-391-39) were sequentially added solutions containing the desired biomolecule, glutathione (GSH), pyridinium salt, and ammonium acetate (NH4OAc). The resulting solution was diluted to a final volume of 500 μL and then sparged using nitrogen for a minimum of 30 minutes prior to irradiation. The actively sparging solution was then placed in an EvoluChem™ PhotoRedOx Box photoreactor that was equipped with a Kessil, PR160 427 nm LED Lamp and was then irradiated (100% lamp intensity) for the designated time at room temperature while maintaining active sparging. The resultant reaction mixture was then analyzed directly by LC/MS. Analysis of labeling outcomes using LC/MS was performed either by extracted ion chromatogram intensities (method A) or by integrating the area under the peaks associated with peptide content (method B). […]
Labeling of β2-Microglobulin with Pyridinium Salt 2a (β2-Microglobulin-2a Conjugate). […] The reaction mixture was directly analyzed by LC/MS using method A and was estimated to have proceeded with 88% conversion with a >20:1 mono:di labeled ratio and 7% glutathionylation of all unlabeled and labeled protein content. β2-Microglobulin-2a conjugate (retention time (Tr)=3.26-4.70 min). […]

chymotrypsinogen = target: T2, chymotrypsinogen (Bos taurus, UniProt P00766); assay: Photochemical labeling of chymotrypsinogen with pyridinium salt (General Procedure B, LC/MS); format: biochemical, bovine; conditions: trypsin digest
T2 construct: α-Chymotrypsinogen A from bovine pancreas; purchased Sigma Aldrich; host or cells: bovine pancreas
Experimental: General Procedure B: Photochemical Irradiation of Peptides and Proteins: To a 2 mL Pyrex LC/MS vial (Thermo model #03-391-39) were sequentially added solutions containing the desired biomolecule, glutathione (GSH), pyridinium salt, and ammonium acetate (NH4OAc). The resulting solution was diluted to a final volume of 500 μL and then sparged using nitrogen for a minimum of 30 minutes prior to irradiation. The actively sparging solution was then placed in an EvoluChem™ PhotoRedOx Box photoreactor that was equipped with a Kessil, PR160 427 nm LED Lamp and was then irradiated (100% lamp intensity) for the designated time at room temperature while maintaining active sparging. The resultant reaction mixture was then analyzed directly by LC/MS. Analysis of labeling outcomes using LC/MS was performed either by extracted ion chromatogram intensities (method A) or by integrating the area under the peaks associated with peptide content (method B). These values were totaled, and estimated percentages were assigned according to relative intensities of peaks or ion counts.
Labeling of Chymotrypsinogen with pyridinium salt 2a (Chymotrypsinogen-2a Conjugate). […] The reaction mixture was directly analyzed by LC/MS using method A and was estimated to have proceeded with 90% conversion with a 20.7:8.3:1 mono:di:tri labeled ratio and 4% glutathionylation of all unlabeled and labeled protein content. […]

## COC(=O)N(C)[n+]1c(C)cc(-c2ccc3cc(OC)ccc3c2)cc1C [pyridinium salt 2a, 1-((methoxycarbonyl)(methyl)amino)-4-(6-methoxynapthalen-2-yl)-2,6-dimethylpyridin-1-ium tetrafluoroborate]
β2-Microglobulin
  Modified Trp: Trp-60
chymotrypsinogen
  Modified Trp: Trp-215; also recorded: Trp-237
